Measurements published in patent US20090221522A1, “METHODS TO CORRECT GENE SET EXPRESSION PROFILES TO DRUG SENSITIVITY” (The Johns Hopkins University, priority 2008, published 2009).

Tested on: direct pancreatic cancer xenografts (fine needle aspiration cells)
Experiment: Ex vivo perturbability assay, low-density microarray RT-PCR
Format: cell-based
Set-up: key to RRM1 gene expression / NFKB1 gene expression / BNIP3L gene expression / VHL gene expression / DCK gene expression / HIF1B gene expression / IGF1R gene expression / MAPK1 gene expression / MAP2K2 gene expression / JUN gene expression / IHH gene expression: % of untreated control (treated sample normalized to untreated)
Conditions: treated normalized to untreated control
Excerpt: Direct pancreatic cancer derived xenografts: Resected pancreatic adenocarcinomas are routinely implanted in nude mice at the Johns Hopkins Medical Institutions as a method to obtain enriched populations of neoplastic cells under an IRB-approved protocol from residual pancreatic cancer tumors. Tumor specimens from Whipple resection specimens were divided into 2-3 mm^3 pieces in antibiotic-containing RPMI media. Pieces of non-necrotic tissue were selected and immersed in Matrigel. Under anesthesia with isofluorane, tumors were implanted into five-to-six week-old female athymic (nu/nu) mice purchased from Harlan (Harlan Laboratories, Washington, D.C.). This research protocol was approved by the Johns Hopkins University Animal Use and Care Committee arid animals were maintained in accordance to guidelines of the American Association of Laboratory Animal Care. Tumors were propagated to subsequent cohorts of mice until a sufficient number were available for drug testing.
Fine needle aspiration (FNA): FNAs on mice were performed according to standard cytopathologic practice using 10 cc syringes and 25-gauge needles. The procedure was performed under inhaled general anesthesia with isofluorane. During each FNA procedure the first pass was smeared onto glass slides and used for morphologic analysis and quality control, (DiffQuik™ and Papanicoloau), and the second through sixth passes were used to acquire viable cells.
Ex vivo assay: FNA passes used to acquire viable cells were immediately transferred into 10 ml sterile prewarmed complete RPMI-1640 culture medium containing 10% FBS, penicillin (200 ug/ml), and streptomycin (200 ug/ml). Equivalent aliquots of cells were seeded in two wells of a 6-well polypropylene microplate. […] Following treatment, non-adherent and adherent cells (collected by scraping) were pooled together in a 1.5 mL microcentrifuge tube and centrifuged at 500 g for 5 mm at 4° C. After washing with PBS, cells were lysed in 100 μL of ice-cold RLT.
RNA extraction and cDNA generation: Total RNA was extracted from cells using the RNeasy™ Mini Kit (Qiagen, Valencia, Calif.) following the manufacturer's instructions. cDNA was synthesized using iScript cDNA synthesis kit (Bio-Rad) following the manufacturer's instructions.
Low-density micro arrays (LDMA): The samples were run in a customized assay with a 384-well format (ABI, Foster City, Calif.), where the expression of 45 to 381 relevant genes can be quantitatively tested. For this example, the array was designed with 8 replicated sections containing 48 wells, with primers of one gene per well: 3 housekeeping genes (HK: UBC, HPRT, SDHA), and 45 genes of interest. 50 μL of cDNA plus 50 μL of ABI mastermix were loaded onto each of two contiguous lanes to have duplicated readouts of every sample, and were run by real-time reverse transcriptase PCR (RT-PCR). The amount of change in the target genes was calculated by comparing the threshold cycle (CT) of each gene to the geometric mean of the CTs of the HK genes. Relative expression of the target genes was estimated using the formula: relative expression=2−^ΔCT, where ΔCT=CT (target gene)−CT (average of the 3 HK genes). The experiment was run in duplicate and mean values are analyzed.
Data analysis: The expression level of each gene in the treated sample was normalized to that of the untreated control. A significant change was defined when the gene expression either increases two-fold or more (>200%), or decreases to half or more (<50%). The rest is considered uninformative.

For `Nc1ccn([C@@H]2O[C@H](CO)[C@@H](O)C2(F)F)c(=O)n1` [gemcitabine], which AXIN2 gene expression (case #6) is on record?
Its AXIN2 gene expression is 517.

And the BAX gene expression (case #6)?
The BAX gene expression was 110.

What about the BNIP3L gene expression (case #6) of the same compound?
Its BNIP3L gene expression is 105.

And the BRAF gene expression (case #6)?
The BRAF gene expression was 88.

And the BRCA1 gene expression (case #6)?
The BRCA1 gene expression was 195.

And the CCND1 gene expression (case #6)?
Its CCND1 gene expression is 85.

And the CXCR4 gene expression (case #6)?
Its CXCR4 gene expression is 0.

And the CyclinB1 gene expression (case #6)?
Its CyclinB1 gene expression is 84.

And the DCK gene expression (case #6)?
The DCK gene expression was 91.

And the EGFR gene expression (case #6)?
Its EGFR gene expression is 74.

What about the ERCC1 gene expression (case #6) of the same compound?
The ERCC1 gene expression was 150.

What about the FOS gene expression (case #6) of the same compound?
The FOS gene expression was 106.

And the GADD45A gene expression (case #6)?
Its GADD45A gene expression is 75.

What about the GLI2 gene expression (case #6) of the same compound?
The GLI2 gene expression was 85.

And the HIF1A gene expression (case #6)?
The HIF1A gene expression was 102.

What about the HIF1B gene expression (case #6) of the same compound?
Its HIF1B gene expression is 65.

And the IGF1R gene expression (case #6)?
The IGF1R gene expression was 82.

What about the IGFBP3 gene expression (case #6) of the same compound?
The IGFBP3 gene expression was 34.

What about the IHH gene expression (case #6) of the same compound?
The IHH gene expression was 122.

What about the MAP2K2 gene expression (case #6) of the same compound?
The MAP2K2 gene expression was 98.

And the MAPK1 gene expression (case #6)?
The MAPK1 gene expression was 90.

And the MAPK3 gene expression (case #6)?
Its MAPK3 gene expression is 75.

And the MDM2 gene expression (case #6)?
Its MDM2 gene expression is 81.

What about the MSLN gene expression (case #6) of the same compound?
Its MSLN gene expression is 101.

And the NFKB1 gene expression (case #6)?
The NFKB1 gene expression was 83.

And the NOTCH1 gene expression (case #6)?
Its NOTCH1 gene expression is 60.

And the NOTCH2 gene expression (case #6)?
Its NOTCH2 gene expression is 79.

What about the PLK1 gene expression (case #6) of the same compound?
The PLK1 gene expression was 31.

And the PSCA gene expression (case #6)?
Its PSCA gene expression is 132.

And the PTCH gene expression (case #6)?
The PTCH gene expression was 153.

What about the SHH gene expression (case #6) of the same compound?
The SHH gene expression was 116.

And the Survivin gene expression (case #6)?
The Survivin gene expression was 145.

What about the TGFA gene expression (case #6) of the same compound?
Its TGFA gene expression is 101.

And the VEGF gene expression (case #6)?
Its VEGF gene expression is 91.

And the VHL gene expression (case #6)?
Its VHL gene expression is 111.

What about the p21 gene expression (case #6) of the same compound?
Its p21 gene expression is 122.

And the AXIN2 gene expression (case #7)?
The AXIN2 gene expression was 41.

And the BAX gene expression (case #7)?
The BAX gene expression was 100.

What about the BNIP3L gene expression (case #7) of the same compound?
The BNIP3L gene expression was 100.

And the BRAF gene expression (case #7)?
The BRAF gene expression was 40.

And the BRCA1 gene expression (case #7)?
The BRCA1 gene expression was 89.

What about the CCND1 gene expression (case #7) of the same compound?
Its CCND1 gene expression is 127.

And the CXCR4 gene expression (case #7)?
Its CXCR4 gene expression is 5.

And the CyclinB1 gene expression (case #7)?
Its CyclinB1 gene expression is 16.

And the DCK gene expression (case #7)?
The DCK gene expression was 102.

What about the EGFR gene expression (case #7) of the same compound?
The EGFR gene expression was 151.

And the ERCC1 gene expression (case #7)?
The ERCC1 gene expression was 153.

What about the FOS gene expression (case #7) of the same compound?
The FOS gene expression was 139.

What about the GADD45A gene expression (case #7) of the same compound?
Its GADD45A gene expression is 96.

And the GLI2 gene expression (case #7)?
The GLI2 gene expression was 73.

And the HIF1A gene expression (case #7)?
Its HIF1A gene expression is 115.

What about the HIF1B gene expression (case #7) of the same compound?
Its HIF1B gene expression is 102.

And the IGF1R gene expression (case #7)?
The IGF1R gene expression was 28.

What about the IGFBP3 gene expression (case #7) of the same compound?
Its IGFBP3 gene expression is 78.

And the IHH gene expression (case #7)?
Its IHH gene expression is 81.

And the JUN gene expression (case #7)?
The JUN gene expression was 80.

What about the MAP2K2 gene expression (case #7) of the same compound?
The MAP2K2 gene expression was 131.

What about the MAPK1 gene expression (case #7) of the same compound?
Its MAPK1 gene expression is 93.

What about the MAPK3 gene expression (case #7) of the same compound?
Its MAPK3 gene expression is 167.

What about the MDM2 gene expression (case #7) of the same compound?
Its MDM2 gene expression is 180.

And the MSLN gene expression (case #7)?
The MSLN gene expression was 117.

What about the NOTCH1 gene expression (case #7) of the same compound?
Its NOTCH1 gene expression is 104.

And the NOTCH2 gene expression (case #7)?
The NOTCH2 gene expression was 112.

And the PLK1 gene expression (case #7)?
Its PLK1 gene expression is 98.

What about the PSCA gene expression (case #7) of the same compound?
The PSCA gene expression was 91.

And the PTCH gene expression (case #7)?
The PTCH gene expression was 63.

What about the RRM1 gene expression (case #7) of the same compound?
Its RRM1 gene expression is 129.

What about the SHH gene expression (case #7) of the same compound?
The SHH gene expression was 57.

And the Survivin gene expression (case #7)?
The Survivin gene expression was 85.

What about the TGFA gene expression (case #7) of the same compound?
Its TGFA gene expression is 131.

And the VEGF gene expression (case #7)?
Its VEGF gene expression is 115.

And the VHL gene expression (case #7)?
Its VHL gene expression is 80.

And the p21 gene expression (case #7)?
Its p21 gene expression is 134.

And the AXIN2 gene expression (case #8)?
Its AXIN2 gene expression is 81.

And the BAX gene expression (case #8)?
Its BAX gene expression is 91.

And the BNIP3L gene expression (case #8)?
The BNIP3L gene expression was 106.

What about the BRAF gene expression (case #8) of the same compound?
The BRAF gene expression was 122.

What about the BRCA1 gene expression (case #8) of the same compound?
Its BRCA1 gene expression is 59.

And the CCND1 gene expression (case #8)?
Its CCND1 gene expression is 107.

And the CXCR4 gene expression (case #8)?
The CXCR4 gene expression was 342.

And the CyclinB1 gene expression (case #8)?
The CyclinB1 gene expression was 140.

And the DCK gene expression (case #8)?
The DCK gene expression was 99.

What about the EGFR gene expression (case #8) of the same compound?
The EGFR gene expression was 91.

What about the ERCC1 gene expression (case #8) of the same compound?
The ERCC1 gene expression was 98.

What about the FOS gene expression (case #8) of the same compound?
Its FOS gene expression is 113.

And the GADD45A gene expression (case #8)?
Its GADD45A gene expression is 147.

And the GLI2 gene expression (case #8)?
The GLI2 gene expression was 531.

What about the HIF1A gene expression (case #8) of the same compound?
Its HIF1A gene expression is 113.

What about the HIF1B gene expression (case #8) of the same compound?
The HIF1B gene expression was 566.

What about the IGF1R gene expression (case #8) of the same compound?
The IGF1R gene expression was 101.

What about the IGFBP3 gene expression (case #8) of the same compound?
Its IGFBP3 gene expression is 83.

What about the IHH gene expression (case #8) of the same compound?
The IHH gene expression was 137.
